In patent US20240150298A1, “ANTIBACTERIAL COMPOUNDS” (Blacksmith Medicines, Inc., priority 2021, published 2024):
In brackets after ≈: the same amount, converted by molar mass.

Experiments:
Test in all cases: Bacterial susceptibility testing, MIC by broth microdilution (CLSI)
Format in all cases: cell-based
[1] = test system: P. aeruginosa 209 PAO1; conditions: Pseudomonas aeruginosa, PAO1, broth microdilution, 35° C., 18-24 h; read-out: MIC P. aeruginosa 209 PAO1
Procedure: (§1) Minimal inhibitory concentrations (MIC) were determined by the broth microdilution method in accordance with the Clinical and Laboratory Standards Institute (CLSI) guidelines. In brief, organism suspensions were adjusted to a final inoculum between 3×10^5 and 7×10^5 colony-forming units (CFU)/mL. Drug dilutions and inocula were made in sterile, cation adjusted Mueller-Hinton Broth (Beckton Dickinson). In wells, an inoculum volume of 100 μL was mixed to 2 μL of DMSO with 2-fold serial dilutions of drug. All inoculated microdilution trays were incubated in ambient air at 35° C. for 18-24 h. Following incubation, the lowest concentration of the drug that prevented visible growth (OD600 nm<0.05) was recorded as the MIC. Performance of the assay was monitored by the use of laboratory quality-control strains and compounds with defined MIC spectrum, in accordance with CLSI guidelines.

[2] = test system: E. coli ATCC25922; conditions: 35° C., 18-24 h; for MIC: Escherichia coli, ATCC25922, broth microdilution, read-out: MIC E. coli ATCC25922
Procedure: as §1

[3] = test system: P. aeruginosa ATCC27835; conditions: Pseudomonas aeruginosa, ATCC27835, broth microdilution, 35° C., 18-24 h; read-out: MIC P. aeruginosa ATCC27835
Procedure: as §1

[4] = test system: K. pneumoniae ATCC13883; conditions: 35° C., 18-24 h; for MIC: Klebsiella pneumoniae, ATCC13883, broth microdilution, read-out: MIC K. pneumoniae ATCC13883
Procedure: as §1

| MIC [1] [µg/mL] | MIC [3] [µg/mL] | MIC [2] [µg/mL] | MIC [4] [µg/mL] | Compound | MIC E. coli ATCC25922 ([2]; broth microdilution) [µg/mL] | MIC K. pneumoniae ATCC13883 ([4]; broth microdilution) [µg/mL] |
| --- | --- | --- | --- | --- | --- | --- |
| 2 (≈ 4.56 µM) | 2 (≈ 4.56 µM) | – | 2 (≈ 4.56 µM) | C[C@H](O)c1nccn1[C@@H](/C=C/c1ccc(-c2ccc(OCCC(O)CO)cc2)cc1)CO (mixture of isomers) [Compound 43, 4-((4′-((S,E)-4-hydroxy-3-(2-((S)-1-hydroxyethyl)-1H-imidazol-1-yl)but-1-en-1-yl)-[1,1′-biphenyl]-4-yl)oxy)butane-1,2-diol] | – | – |
| 2 (≈ 4.72 µM) | 2 (≈ 4.72 µM) | – | – | C[C@H](O)c1nccn1[C@@H](/C=C/c1ccc(-c2ccc(OC[C@H](N)CO)cc2)cc1)CO (single isomer, unassigned) [Compound 9] | – | – |
| 1 (≈ 2.36 µM) | 2 (≈ 4.72 µM) | 8 (≈ 18.9 µM) | 16 (≈ 37.8 µM) | C[C@H](O)c1nccn1[C@@H](/C=C/c1ccc(-c2ccc(OC[C@@H](N)CO)cc2)cc1)CO (single isomer, unassigned) [Compound 10] | – | – |
| 0.5 (≈ 1.23 µM) | 2 (≈ 4.93 µM) | 0.5 (≈ 1.23 µM) | – | C[C@H](O)c1nccn1[C@@H](/C=C/c1ccc(-c2ccc(O[C@@H]3C[C@H]3N)cc2)cc1)CO (single isomer, unassigned) [Compound 15] | – | – |
| 4 (≈ 9.42 µM) | 4 (≈ 9.42 µM) | 8 (≈ 18.8 µM) | 16 (≈ 37.7 µM) | C[C@H](O)c1nccn1[C@@H](/C=C/c1ccc(-c2ccc(OC[C@H](O)CO)cc2)cc1)CO [Compound 23, (R)-3-((4′-((S,E)-4-hydroxy-3-(2-((S)-1-hydroxyethyl)-1H-imidazol-1-yl)but-1-en-1-yl)-[1,1′-biphenyl]-4-yl)oxy)propane-1,2-diol] | – | – |
| 2 (≈ 4.13 µM) | 2 (≈ 4.13 µM) | – | 1 (≈ 2.06 µM) | C[C@H](O)c1nccn1[C@@H](/C=C/c1ccc(-c2ccc(C3CC(NCc4cocn4)C3)cc2)cc1)CO (stereo partly drawn) [Compound 40, (S,E)-2-(2-((S)-1-hydroxyethyl)-1H-imidazol-1-yl)-4-(4′-(3-((oxazol-4-ylmethyl)amino)cyclobutyl)-[1,1′-biphenyl]-4-yl)but-3-en-1-ol] | – | – |
| 2 (≈ 4.23 µM) | 2 (≈ 4.23 µM) | – | 2 (≈ 4.23 µM) | C[C@H](O)c1nccn1[C@@H](/C=C/c1ccc(-c2ccc(C3CC(NC(C#N)CO)C3)cc2)cc1)CO (stereo partly drawn) [Compound 41, 3-hydroxy-2-((3-(4′-((S,E)-4-hydroxy-3-(2-((S)-1-hydroxyethyl)-1H-imidazol-1-yl)but-1-en-1-yl)-[1,1′-biphenyl]-4-yl)cyclobutyl)amino)propanenitrile] | – | – |
| 4 (≈ 8.24 µM) | 4 (≈ 8.24 µM) | – | 0.5 (≈ 1.03 µM) | C[C@H](O)c1nccn1[C@@H](/C=C/c1ccc(-c2ccc(C3CC(NCc4ncon4)C3)cc2)cc1)CO (stereo partly drawn) [Compound 42, (S,E)-4-(4′-(3-(((1,2,4-oxadiazol-3-yl)methyl)amino)cyclobutyl)-[1,1′-biphenyl]-4-yl)-2-(2-((S)-1-hydroxyethyl)-1H-imidazol-1-yl)but-3-en-1-ol] | – | – |
| 4 (≈ 8.67 µM) | 4 (≈ 8.67 µM) | 4 (≈ 8.67 µM) | 8 (≈ 17.3 µM) | C[C@H](O)c1nccn1[C@@H](/C=C/c1ccc(-c2ccc(C3CC(NCC(=O)O)C3)cc2)cc1)CO (stereo partly drawn) [Compound 44, (3-(4′-((S,E)-4-hydroxy-3-(2-((S)-1-hydroxyethyl)-1H-imidazol-1-yl)but-1-en-1-yl)-[1,1′-biphenyl]-4-yl)cyclobutyl)glycine] | – | – |
| 4 (≈ 8.04 µM) | 4 (≈ 8.04 µM) | 0.25 (≈ 0.502 µM) | 0.5 (≈ 1 µM) | C[C@H](O)c1nccn1[C@@H](/C=C/c1ccc(-c2ccc(C3CC(NCC(F)(F)CO)C3)cc2)cc1)CO (stereo partly drawn) [Compound 45, (S,E)-4-(4′-(3-((2,2-difluoro-3-hydroxypropyl)amino)cyclobutyl)-[1,1′-biphenyl]-4-yl)-2-(2-((S)-1-hydroxyethyl)-1H-imidazol-1-yl)but-3-en-1-ol] | – | – |
| 4 (≈ 7.96 µM) | 4 (≈ 7.96 µM) | 0.5 (≈ 0.995 µM) | 2 (≈ 3.98 µM) | C[C@H](O)c1nccn1[C@@H](/C=C/c1ccc(-c2ccc(C3CC(NC[C@@H]4CNC(=O)O4)C3)cc2)cc1)CO (stereo partly drawn) [Compound 46, (R)-5-(((3-(4′-((S,E)-4-hydroxy-3-(2-((S)-1-hydroxyethyl)-1H-imidazol-1-yl)but-1-en-1-yl)-[1,1′-biphenyl]-4-yl)cyclobutyl)amino)methyl) oxazolidin-2-one] | – | – |
| 4 (≈ 7.57 µM) | 4 (≈ 7.57 µM) | 0.5 (≈ 0.946 µM) | 1 (≈ 1.89 µM) | C[C@H](O)c1nccn1[C@@H](/C=C/c1ccc(-c2ccc(C3CC(NCc4noc(C(N)=O)n4)C3)cc2)cc1)CO (stereo partly drawn) [Compound 47, 3-(((3-(4′-((S,E)-4-hydroxy-3-(2-((S)-1-hydroxyethyl)-1H-imidazol-1-yl)but-1-en-1-yl)-[1,1′-biphenyl]-4-yl)cyclobutyl)amino)methyl)-1,2,4-oxadiazole-5-carboxamide] | – | – |
| 2 (≈ 4.96 µM) | 2 (≈ 4.96 µM) | 2 (≈ 4.96 µM) | 16 (≈ 39.7 µM) | C[C@H](O)c1nccn1[C@@H](/C=C/c1ccc(-c2ccc(C3CC(N)C3)cc2)cc1)CO (stereo partly drawn) [Compound 48, (S,E)-4-(4′-(3-aminocyclobutyl)-[1,1′-biphenyl]-4-yl)-2-(2-((S)-1-hydroxyethyl)-1H-imidazol-1-yl)but-3-en-1-ol] | – | – |

Continued, compound first:

| Compound | MIC [1] [µg/mL] | MIC [3] [µg/mL] | MIC [2] [µg/mL] | MIC [4] [µg/mL] | MIC E. coli ATCC25922 ([2]; broth microdilution) [µg/mL] | MIC K. pneumoniae ATCC13883 ([4]; broth microdilution) [µg/mL] |
| --- | --- | --- | --- | --- | --- | --- |
| C[C@H](O)c1nccn1[C@@H](/C=C/c1ccc(-c2ccc(OCC(N)CO)cc2)cc1)CO (mixture of isomers) [Compound 8, (2S,E)-4-(4′-(2-amino-3-hydroxypropoxy)-[1,1′-biphenyl]-4-yl)-2-(2-((S)-1-hydroxyethyl)-1H-imidazol-1-yl)but-3-en-1-ol] | 4 (≈ 9.44 µM) | 4 (≈ 9.44 µM) | – | – | 16 (≈ 37.8 µM) | 64 (≈ 151 µM) |
| C[C@H](O)c1nccn1[C@@H](/C=C/c1ccc(-c2ccc(O[C@H]3C[C@@H]3N)cc2)cc1)CO (racemic) [Compound 13, (S,E)-4-(4′-((trans)-2-aminocyclopropoxy)-[1,1′-biphenyl]-4-yl)-2-(2-((S)-1-hydroxyethyl)-1H-imidazol-1-yl)but-3-en-1-ol] | 2 (≈ 4.93 µM) | 16 (≈ 39.5 µM) | 4 (≈ 9.86 µM) | 4 (≈ 9.86 µM) | – | – |
| C[C@H](O)c1nccn1[C@@H](/C=C/c1ccc(-c2ccc(CO[C@H]3C[C@H]3N)cc2)cc1)CO (racemic) [Compound 16, (S,E)-4-(4′-(((cis)-2-aminocyclopropoxy)methyl)-[1,1′-biphenyl]-4-yl)-2-(2-((S)-1-hydroxyethyl)-1H-imidazol-1-yl)but-3-en-1-ol] | 2 (≈ 4.77 µM) | 4 (≈ 9.53 µM) | 2 (≈ 4.77 µM) | 8 (≈ 19.1 µM) | – | – |
| C[C@H](O)c1nccn1[C@@H](/C=C/c1ccc(-c2ccc(OCC(O)CN(C)C)cc2)cc1)CO (mixture of isomers) [Compound 21, (2S,E)-4-(4′-(3-(dimethylamino)-2-hydroxypropoxy)-[1,1′-biphenyl]-4-yl)-2-(2-((S)-1-hydroxyethyl)-1H-imidazol-1-yl)but-3-en-1-ol] | 8 (≈ 17.7 µM) | 4 (≈ 8.86 µM) | 16 (≈ 35.4 µM) | 64 (≈ 142 µM) | – | – |
| C[C@H](O)c1nccn1[C@@H](/C=C/c1ccc(-c2ccc(OCC(O)CN)cc2)cc1)CO (mixture of isomers) [Compound 22, (2S,E)-4-(4′-(3-amino-2-hydroxypropoxy)-[1,1′-biphenyl]-4-yl)-2-(2-((S)-1-hydroxyethyl)-1H-imidazol-1-yl)but-3-en-1-ol] | 4 (≈ 9.44 µM) | 2 (≈ 4.72 µM) | 16 (≈ 37.8 µM) | 64 (≈ 151 µM) | – | – |
| C[C@H](O)c1nccn1C/C=C/c1ccc(-c2ccc(OCCN3CCN(CCN)CC3)cc2)cc1 [Compound 5, (S,E)-1-(1-(3-(4′-(2-(4-(2-aminoethyl)piperazin-1-yl)ethoxy)-[1,1′-biphenyl]-4-yl)allyl)-1H-imidazol-2-yl)ethan-1-ol] | 4 (≈ 8.41 µM) | 4 (≈ 8.41 µM) | 2 (≈ 4.2 µM) | 4 (≈ 8.41 µM) | – | – |
| C[C@H](O)c1nccn1C/C=C/c1ccc(-c2ccc(OCCN3CC(CN)C3)cc2)cc1 [Compound 6, (S,E)-1-(1-(3-(4′-(2-(3-(aminomethyl)azetidin-1-yl)ethoxy)-[1,1′-biphenyl]-4-yl)allyl)-1H-imidazol-2-yl)ethan-1-ol] | 4 (≈ 9.25 µM) | 4 (≈ 9.25 µM) | 4 (≈ 9.25 µM) | 16 (≈ 37 µM) | – | – |
| C[C@H](O)c1nccn1C/C=C/c1ccc(-c2ccc(OCC3(N)CC3)cc2)cc1 [Compound 7, (S,E)-1-(1-(3-(4′-((1-aminocyclopropyl)methoxy)-[1,1′-biphenyl]-4-yl)allyl)-1H-imidazol-2-yl)ethan-1-ol] | 2 (≈ 5.13 µM) | 4 (≈ 10.3 µM) | 0.25 (≈ 0.642 µM) | 0.25 (≈ 0.642 µM) | – | – |
| C[C@H](O)c1nccn1[C@@H](/C=C/c1ccc(-c2ccc(OC3CN(CCO)C3)cc2)cc1)CO [Compound 20, (S,E)-2-(2-((S)-1-hydroxyethyl)-1H-imidazol-1-yl)-4-(4′-((1-(2-hydroxyethyl)azetidin-3-yl)oxy)-[1,1′-biphenyl]-4-yl)but-3-en-1-ol] | 2 (≈ 4.45 µM) | 2 (≈ 4.45 µM) | 4 (≈ 8.9 µM) | – | – | – |
| COC[C@H](N)COc1ccc(-c2ccc(/C=C/[C@@H](CO)n3ccnc3[C@H](C)O)cc2)cc1 [Compound 31, (2S,E)-4-(4′-(2-amino-3-methoxypropoxy)-[1,1′-biphenyl]-4-yl)-2-(2-((S)-1-hydroxyethyl)-1H-imidazol-1-yl)but-3-en-1-ol] | 1 (≈ 2.29 µM) | 4 (≈ 9.14 µM) | 2 (≈ 4.57 µM) | 4 (≈ 9.14 µM) | – | – |
